Measurements from patent US5830910A (priority 1995, dated 1998).

Key:
[1] = tested on: cultured hippocampal neurons; assay: neurotoxicity of combined exposure to Aβ and glutamate; format: cell-based, rat; settings: 50 μM Aβ plus 20 μM glutamate, 48 h; compared with either insult alone
Source text: Dissociated embryonic rat hippocampal cell cultures were established and maintained. All procedures conformed with the NIH Guide for the Care and Use of Laboratory Animals and were approved by the University of Kentucky Animal Care and Use Committee. Cultures were maintained on a polyethyleneimine-coated substrate in plastic 35-mm dishes or 96 wall plates (for cell survival studies) or glass-bottom 35-mm dishes (for [Ca^2+ ]i imaging studies). The cell density was ^~ 70-100 cells/mm^2. Cells were maintained in Eagle's minimum essential medium supplemented 10% with fetal bovine serum and containing 20 mM sodium pyruvate. […]
Neuronal survival was quantified by counting viable neurons in the same microscope fields (10x objective) immediately before experimental treatment and at time points after treatment. In addition, cells were grown in 96-well plates and Alamar blue fluorescence (Alamar Laboratories)was quantified by using a fluorescence plate reader. […] Viability of the remaining neurons was assessed by morphological criteria. […] Survival values were expressed as percentages of the initial number of neurons present before experimental treatment. […]
FIG. 13. […] Neuronal survival was assessed 48 h after treatment. […]

[2] = tested on: neuronal [Ca^2+]i in cultured hippocampal neurons; assay: measurement of [Ca^2+]i, fura-2 imaging; format: cell-based, rat; settings: 50 μM Aβ
Source text: (§1) Dissociated embryonic rat hippocampal cell cultures were established and maintained. All procedures conformed with the NIH Guide for the Care and Use of Laboratory Animals and were approved by the University of Kentucky Animal Care and Use Committee. Cultures were maintained on a polyethyleneimine-coated substrate in plastic 35-mm dishes or 96 wall plates (for cell survival studies) or glass-bottom 35-mm dishes (for [Ca^2+ ]i imaging studies). The cell density was ^~ 70-100 cells/mm^2. Cells were maintained in Eagle's minimum essential medium supplemented 10% with fetal bovine serum and containing 20 mM sodium pyruvate. […] Aβ25-35 (Bachem, lot ZJ744) and Aβ1-40 (Bachem, lot ZK600) were stored in the lyophilized form, and stocks were prepared immediately before use by dissolving the peptide at a concentration of 1 mM in sterile distilled water. […] Glutamate and colchicine (Sigma) were prepared as 200-500x stocks in saline. Cytochalasins D and E (Sigma) and calcium ionophore 4-bromo-A23187 (Calbiochem) were prepared as 500x stocks in dimethyl sulfoxide. Vitamin E (α-tocopherol; Sigma) was prepared as a 500x stock in ethanol. Nordihydroguaiaretic acid and FeSo4 were prepared as 500x stocks in sterile water.
Fluorescence ratio imaging of the Ca^2+ indicator dye fura-2 was used to quantify [Ca^2+ ]i in neuronal somata. Cells were incubated for 30-40 min in the presence of 2 μM acetoxymethyl ester form of the [Ca^2+ ]i indicator dye fura-2 and were then washed twice (2 ml/wash) with fresh medium and allowed to incubate at least 40 min before imaging. Immediately before imaging, the normal culture medium was replaced with Hanks' balanced saline solution (GIBCO) containing 10 mM HEPES buffer and 10 mM of glucose. Cells were imaged using a Zeiss Attofluor system with a oil objective or Quantex system with a 40x oil objective. The ratio of the fluorescence emission using two different excitation wavelengths (334 and 380 nm) was used to determine [Ca^2+ ]i. The system was calibrated using solutions containing either no Ca^2+ or a saturating level of Ca^2+ (1 mM) according to the following formula: [Ca^2+ ]i =KD [(R-Rmin) / (Rmax -R)] (F0 /FS). Values represent the average [Ca^2+ ]i in the neuronal cell body. Experimental treatments were added to the bathing medium by dilution from 100-500x stocks.
(A) Cultures were pretreated for 1 hr with 100 nM cytochalasin D and then [Ca^2+ ]i in neurons was monitored prior to and following exposure to 50 μM glutamate. The records represent the mean [Ca^2+ ]i in 8-12 neurons. Similar results were obtained in 4 separate experiments.
(B) Aβ-induced potentiation of [Ca^2+ ]i response to glutamate is abrogated by cytochalasin D. Cultures were left untreated (Control) or were exposed to 20 μM Aβ25-35 for 6 hr or cytochalasin D plus Aβ25-35 for 6 hr. The [Ca^2+ ]i was then monitored prior to following exposure to 50 μM glutamate. Values represent the means of 8-14 neurons. Similar results were obtained in 3 separate experiments.
(C) Cultures were pretreated for 3 hr with 50 μM Aβ alone or in combination with 100 nM cytochalasin D. The [Ca^2+ ]i in neurons was then monitored prior to and following exposure to 50 mM KCl. Values represent the mean of 14-23 neurons. Similar results were obtained in a separate experiment.
(D) Cultures were pretreated for 1 h with 100 nM cytochalasin D. The [Ca^2+ ]i in neurons was measured immediately prior to, and at 5 min following, exposure to the indicated concentrations of glutamate. Values represent the means and SEM of determinations made in 17-26 neurons. *P<0.05 (10 μM glutamate), P<0.02 (50 μM glutamate), P<0.01 (100 μAM glutamate) compared to corresponding control values.
FIG. 9. Cultures were pretreated for 3 h with vehicle (control) or 10 μM jasplakinolide. The [Ca^2+ ]i was monitored prior to and following exposure to 50 μM glutamate. Values represent the mean of determinations made in 10-12 neurons. Similar results were obtained in two additional experiments.
FIG. 10. […]

[3] = aggregation of peptides in culture medium; format: physicochemical
Source text: as §1

[4] = tested on: cultured hippocampal neurons; assay: cells; format: cell-based, rat
Source text: as §1
(§2) Neuronal survival was quantified by counting viable neurons in the same microscope fields (10x objective) immediately before experimental treatment and at time points after treatment. In addition, cells were grown in 96-well plates and Alamar blue fluorescence (Alamar Laboratories)was quantified by using a fluorescence plate reader. Alamar Blue is a non-fluorescent substrate that, after reduction by cell metabolites, becomes fluorescent. Usually neurons that died in the time intervals (20-48 h) between examination points were absent. Viability of the remaining neurons was assessed by morphological criteria. Neutrons with intact neurites of uniform diameter and a soma with a smooth, round appearance were considered viable, whereas neurons with fragmented neurites and a vacuolated or swollen soma were considered nonviable. Survival values were expressed as percentages of the initial number of neurons present before experimental treatment. Statistical comparisons were made using ANOVA and Scheffe post-hoc tests for pairwise comparisons.
Values represent the means and SEM of 4 separate cultures (cell counts) or 4 culture wells (Alamar blue assay). ^a p<0.05 compared to control value. ^b p<0.001 compound to control value. ^c p<0.01 compared to value for glutamate-treated cultures. ^d p<0.005 compared to value for glutamate-treated cultures. ^e p<0.001 compared to value for Aβ-treated cultures. ^f p<0.001 compared to value for cultures treated with 20 μM glutamate. ^g p<0.001 compared to cultures treated with 50 μM Aβ+20 μM glutamate. n.d. not determined.

[5] = tested on: cultured hippocampal neurons; format: cell-based, rat
Source text: as §1, §2
FIG. 12. (A) Cultures were pretreated for 1 h with vehicle 0.2% dimethyl sulfoxide (Control) or 100 nM cytochalasin D (CyD) and were exposed to the indicated concentrations of Aβ25-35 for 48 h. Data are mean and SEM values of determinations made in four separate cultures.
(B) Cultures were pretreated for 1 h with the indicated concentrations of cytochalasin D and then exposed to 50 μM Aβ25-35; parallel cultures were exposed to cytochalasin D alone (Control) . Data are mean and SEM values of determinations made in four separate cultures.
FIG. 14. Cultures were exposed to 100 nM colchicine; 50 μM Aβ; 100 nM colchicine plus 50 μM Aβ; 100 nM cytochalasin E (CyE) plus Aβ (colchicine and cytochalasin E were added 1 h before Aβ); neuronal survival was assessed 48 h later. Data are mean and SEM values of determinations made in four separate cultures. *p<0.01, compared with values for control or colchicine alone. **p<0.01, compared with value for cultures exposed to Aβ alone.

[6] = tested on: neuronal [Ca^2+]i in cultured hippocampal neurons; assay: measurement of [Ca^2+]i, fura-2 imaging; format: cell-based, rat; settings: 50 μM glutamate

Aβ25-35: Aβ25-35 (Bachem, lot ZJ744), amyloid β-peptide fragment (GSNKGAIIGLM; Amyloid-beta protein 42; UniProt P05067 696-706, looked up, fragment) [reference compound]
neuronal death on combined exposure to Aβ and glutamate [1]: significantly more neuronal death | rest [Ca^2+]i ([2]; 3 h): ~ 280 nM | rest [Ca^2+]i ([2]; 6 h): ~ 440 nM | aggregation in culture medium [3]: aggregated rapidly | Neuron Survival (% of control), Alamar Blue Assay ([4]; 50 μM Aβ + 20 μM Glutamate): 24 ± 0.8 % of control | Neuron Survival (% of control), Alamar Blue Assay ([4]; 50 μM, alone): 47 ± 3.5 % of control | neuronal survival in cultures exposed to Aβ25-35 ([5]; 50 μM, 24 hr): less than 50 % of control values | neuronal survival upon exposure to Aβ25-35 ([5]; 24-h incubation): concentration-dependent reduction in neuronal survival | neurotoxicity, preliminary characterization ([5]; 48-h period, added in soluble form): progressively killed neurons | [Ca^2+]i reached after glutamate in Aβ-pretreated cultures ([6]; Aβ pretreatment 3 h): > 1,500 nM | [Ca^2+]i reached after glutamate in Aβ-pretreated cultures ([6]; Aβ pretreatment 3 hr): over 1 μM
